Reference: article PMC8282186, “Identification of a gustatory receptor tuned to sinigrin in the cabbage butterfly Pieris rapae” (PLoS Genetics, 2021)

Molecular target: T1, PrapGr28 (Pieris rapae, UniProt Z9RYY0XAY3)
T1 construct: also UAS-PrapGr28 in Drosophila Gr5a sweet neurons; oligomer unknown
T1 sequence (Z9RYY0XAY3 1-399): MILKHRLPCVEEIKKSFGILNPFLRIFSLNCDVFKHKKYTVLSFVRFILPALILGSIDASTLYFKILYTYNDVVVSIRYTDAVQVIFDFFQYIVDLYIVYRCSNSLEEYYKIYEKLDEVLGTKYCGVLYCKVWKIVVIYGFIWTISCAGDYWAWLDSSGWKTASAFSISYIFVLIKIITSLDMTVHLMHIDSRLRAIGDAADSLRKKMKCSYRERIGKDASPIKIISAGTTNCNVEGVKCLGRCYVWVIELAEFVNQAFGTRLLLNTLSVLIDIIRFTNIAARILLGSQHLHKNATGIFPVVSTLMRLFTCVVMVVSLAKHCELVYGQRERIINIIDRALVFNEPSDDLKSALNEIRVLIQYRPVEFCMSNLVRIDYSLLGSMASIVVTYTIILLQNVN
Experiment: two-electrode voltage clamp, inward current in Xenopus oocytes
Assay type: cell-based
Settings: agonist; PrapGr28 expressed alone; holding potential -80 mV; 0.1-50 mM dose range; also tip recording of Drosophila L-type sensilla expressing PrapGr28
Description: two-electrode voltage clamp, inward current in Xenopus oocytes on […]28 | the oocytes expressing […]28 selectively responded to sinigrin

In the case of `C=CC/C(=N/OS(=O)(=O)O)S[C@@H]1O[C@H](CO)[C@@H](O)[C@H](O)[C@H]1O` [sinigrin], the “inward current response at 1 mM” value is reported as “the oocytes expressing PrapGr28 selectively responded to sinigrin”.
